# Assay results reported in ChEMBL document CHEMBL5335777 (Eur J Med Chem, 2023).
# Calls of active or inactive are those of the source. The rule behind the calls is not given here.
# Columns and labels:
# NCI-H1792 [1] = assay: Antiproliferative activity against human NCI-H1792 cells harboring heterozygous KRAS G12C mutant assessed as inhibition of cell growth incubated for 72 hrs by MTT assay; type: functional, cell-based; conditions: NCI-H1792, 72 h
# MIA PaCa-2 = assay: Antiproliferative activity against human MIA PaCa-2 cells harboring homozygous KRAS G12C mutant assessed as inhibition of cell growth incubated for 72 hrs by MTT assay; type: functional, cell-based; conditions: MIA PaCa-2, 72 h
# NCI-H358 = assay: Antiproliferative activity against human NCI-H358 cells harboring heterozygous KRAS G12C mutant assessed as inhibition of cell growth incubated for 72 hrs by MTT assay; type: functional, cell-based; conditions: NCI-H358, 72 h
# A549 = assay: Antiproliferative activity against human A549 cells harboring homozygous KRAS G12S mutant assessed as inhibition of cell growth incubated for 72 hrs by MTT assay; type: functional, cell-based; conditions: A549, 72 h
# PANC-1 = assay: Antiproliferative activity against human PANC-1 cells harboring heterozygous KRAS G12D mutant assessed as inhibition of cell growth incubated for 72 hrs by MTT assay; type: functional, cell-based; conditions: PANC-1, 72 h
# BXPC-3 = assay: Antiproliferative activity against human BXPC-3 cells harboring wild type KRAS assessed as inhibition of cell growth incubated for 72 hrs by MTT assay; type: functional, cell-based; conditions: BXPC-3, 72 h
# [2] = Antiproliferative activity against human HCA-7 cells harboring wild type KRAS assessed as inhibition of cell growth incubated for 72 hrs by MTT assay; type: functional, cell-based, HCA7; conditions: HCA-7, 72 h
# [3] = Cytotoxicity against human MRC5 cells assessed as inhibition of cell growth incubated for 72 hrs by MTT assay; type: toxicity, cell-based
# [4] = Cytotoxicity against human CCD-986Sk cells assessed as inhibition of cell growth incubated for 72 hrs by MTT assay; type: toxicity, cell-based
# [5] = Cmax in NOD-SCID mouse at 15 mg/kg, ip administered as single dose and measured upto 48 hrs by HPLC/MS analysis; type: ADME, organism-based; set-up: time < 48 hrs, dose 15 mg/kg, route ip; conditions: in vivo
# [6] = Tmax in NOD-SCID mouse at 15 mg/kg, ip administered as single dose and measured upto 48 hrs by HPLC/MS analysis; type: ADME, organism-based; conditions: in vivo
# [7] = Volume of distribution in NOD-SCID mouse at 15 mg/kg, ip administered as single dose and measured upto 48 hrs by HPLC/MS analysis; type: ADME, organism-based; conditions: in vivo
# [8] = tested on: GTPase KRas (Homo sapiens), P01116 [G12C]; assay: Binding affinity to Cys12 residue of GDP bound human KRAS-4B G12C mutant (1 to 169 residues) expressed in Escherichia coli BL21 Rosetta cells at 150 to 500 uM measured after 96 hrs by 1H-15N HSQC NMR spectral analysis; conditions: dose 150-500 µM
# [9] = tested on: GTPase KRas (Homo sapiens), P01116 [G12C]; assay: Binding affinity to Cys51 residue of GDP bound human KRAS-4B G12C mutant (1 to 169 residues) expressed in Escherichia coli BL21 Rosetta cells at 150 to 500 uM measured after 96 hrs by 1H-15N HSQC NMR spectral analysis; conditions: dose 150-500 µM
# [10] = tested on: GTPase KRas (Homo sapiens), P01116 [G12C]; assay: Binding affinity to Cys80 residue of GDP bound human KRAS-4B G12C mutant (1 to 169 residues) expressed in Escherichia coli BL21 Rosetta cells at 150 to 500 uM measured after 96 hrs by 1H-15N HSQC NMR spectral analysis; conditions: dose 150-500 µM
# [11] = tested on: GTPase KRas (Homo sapiens), P01116 [G12C]; assay: Covalent binding affinity to GDP-bound human KRAS-4B G12C mutant (1 to 169 residues) expressed in Escherichia coli BL21 Rosetta cells at 200 uM measured after 15 mins by Ellman's assay
# [12] = tested on: GTPase KRas (Homo sapiens), P01116 [G12C]; assay: Covalent binding affinity to GDP-bound human KRAS-4B G12C mutant (1 to 169 residues) expressed in Escherichia coli BL21 Rosetta cells at 200 uM measured after 4 hrs by Ellman's assay
# [13] = tested on: GTPase KRas (Homo sapiens), P01116 [G12C]; assay: Covalent binding affinity to GDP-bound human KRAS-4B G12C mutant (1 to 169 residues) expressed in Escherichia coli BL21 Rosetta cells assessed as reduction in free Cys residues at 200 uM measured after 1 hr by Ellman's assay
# Homo sapiens [14] = species: Homo sapiens; assay: Inhibition of GDP-bound human KRAS 149stop G12C mutant expressed in Escherichia coli BL21 Rosetta cells assessed as inhibition of EDTA mediated nucleotide exchange at 250 uM measured after 24 hrs by fluorescence based analysis
# Homo sapiens [15] = species: Homo sapiens; assay: Inhibition of GDP-bound human KRAS 149stop G12C mutant expressed in Escherichia coli BL21 Rosetta cells assessed as inhibition of SOS1 mediated nucleotide exchange at 250 uM measured after 24 hrs by fluorescence based analysis
# [16] = Toxicity in immunodeficient NOD-SCID mouse xenografted with human NCI-H1792 cells harboring KRAS G12C mutant assessed as body weight at 5 to 30 mg/kg, ip administered for 5 times at 5 mg/kg in first week followed by administration at 20 mg/kg 5 times in second week and further administered 30 mg/kg 3 times in third week measured 17 days post treatment initiation and 35 days post tumor transplantation (reference value: 6.6 g); type: organism-based; conditions: in vivo, 408 h, dose 5-30 mg/kg, time 17 day
# [17] = Toxicity in immunodeficient NOD-SCID mouse xenografted with human NCI-H1792 cells harboring KRAS G12C mutant assessed as body weight at 5 to 30 mg/kg, ip administered for 5 times at 5 mg/kg in first week followed by administration at 20 mg/kg 5 times in second week and further administered 30 mg/kg 3 times in third week measured 20 days post treatment initiation and 38 days post tumor transplantation (reference value: 6.6 g); type: organism-based; conditions: in vivo, 480 h, dose 5-30 mg/kg, time 20 day
# [18] = Toxicity in immunodeficient NOD-SCID mouse xenografted with human LCLC-103H cells harboring wild type KRAS assessed as body weight at 5 to 30 mg/kg, ip administered for 5 times at 5 mg/kg in first week followed by administration at 20 mg/kg 5 times in second week and further administered 30 mg/kg 3 times in third week measured 17 days post treatment initiation and 35 days post tumor transplantation (reference value: 2.6 g); type: organism-based; conditions: in vivo, 408 h, dose 5-30 mg/kg, time 17 day
# LCLC-103H cell line = assay: Antitumor activity against human LCLC-103H cells harboring wild type KRAS xenografted in immunodeficient NOD-SCID mouse assessed as tumor volume at 5 to 30 mg/kg, ip administered for 5 times at 5 mg/kg in first week followed by administration at 20 mg/kg 5 times in second week and further administered 30 mg/kg 3 times in third week measured 17 days post treatment initiation and 35 days post tumor transplantation by digital caliper based analysis; type: functional; conditions: dose 5-30 mg/kg, time 17 day
# [19] = tested on: GTPase KRas (Homo sapiens), P01116 [G12C]; assay: Reversible binding affinity to GDP-bound human KRAS-4B G12C mutant (1 to 169 residues) expressed in Escherichia coli BL21 Rosetta cells by intact LCMS analysis
# NCI-H1792 [20] = assay: Antiproliferative activity against human NCI-H1792 cells harboring KRAS G12C mutant assessed as cell viability at 25 uM incubated for 72 hrs by MTT assay relative to control; type: functional; conditions: read-out: Activity
compound,measurement,setting,value
O=Cc1c(O)ccc2ccccc12,IC50,NCI-H1792 [1],11.4 µM
same,IC50,MIA PaCa-2,24.5 µM
same,IC50,NCI-H358,12.3 µM
same,IC50,A549,43.3 µM
same,IC50,PANC-1,27.6 µM
same,IC50,BXPC-3,46.9 µM
same,IC50,[2],26.2 µM
same,IC50 at 72 h,[3],25 µM
same,IC50 at 72 h,[4],66.2 µM
same,Cmax,[5],27.4 µg/mL
same,Tmax,[6],15 min
same,Vd,[7],63.6 mL
same,Activity,[8],Active
same,Activity,[9],inactive
same,Activity,[10],inactive
same,Activity,[11],Active
same,Activity,[12],100%
same,Activity,[13],Active
same,inhibition,Homo sapiens [14],Active
same,inhibition,Homo sapiens [15],Active
same,Activity,[16],5.2 g
same,Activity,[17],4.9 g
same,Activity,[18],0 g
same,Activity,LCLC-103H cell line,9.2 mm3
same,Activity,[19],Active
same,viability at 25 µM,NCI-H1792 [20],< 50%
